“Also recorded” adds a separate entry of the source.
What was measured:
[1] = pyrogallol induced ROS (superoxide) scavenging assay; assay type: biochemical; settings: Concentration 250 μM; Time 0.5 h
[2] = tested on: plasminogen activating inhibitor-1 (PAI-1); experiment: DEX induced PAI-1 in human trabecular meshwork cells (western blot); assay type: cell-based; settings: DEX 100 nM, compound 100 μM, 48 hr, conditioned medium
Procedure: Briefly, cells were plated at a density of 2×10^5 cells per well and were treated with DEX (100 nM) or vehicle (ethanol) in the presence of 100 μM of SA-1, SA-2, SA-9, SA-10 and PBA (positive control) for 48 hr. Conditioned medium was collected for western blot. Experiments were performed in triplicates.
In vitro plasminogen activating inhibitor-1 (PAI-1) activity. Human primary trabecular meshwork (hTM) cells were plated in 6-well plates at a density of 2×10^5 cells per well and were treated with dexamethasone (DEX, 100 nM) or vehicle (ethanol) in the presence of test compounds (100 μM) for 48 hr. Conditioned medium was collected for Western Blot. Experiments were performed in triplicates […].

ischemic hindlimb mice = experiment: hind limb ischemia (PAD) model: blood perfusion and treadmill; assay type: in vivo, mouse
Description: Parameters: Incline 30 degrees; max endurance test at […]; stimulation: 1.5 mA. Stimulation and distance count were stopped when a mouse met one of the following conditions: 1) total stimulation time 30 seconds; or 2) single stimulation time is more than 10 seconds.
Animal model. Since PAD happens commonly in old people, the inventor used old mice for ischemic hindlimb animal models. To this, male and female Balb/c mice at age of 30-40 weeks old were chosen for these in vivo studies. Animals were housed in individual cage at normal diet before performing ligation. In brief, animals were anesthetized with 2% isoflurane, and prior to incision, analgesic SR Buprenorphine was injected subcutaneously (at dose of 1 mg/kg for mice). Upon opening the incision on animals left legs, the membrane covering the inguinal fat tissue was carefully separated to expose the neurovascular bundle underneath and veins and nerves were then carefully separated from arteries. Next, three pair of 1 mm-distal ties (using 6-0 or 7-0 nonabsorbable suture) followed by transection (by spring scissor) were made on femoral artery, proximal caudal femoral artery and superficial caudal epigastric artery. Finally, the incision was closed by absorbable 5-0 or 6-0 sutures. The animal model appeared limping similar to literature report^37 from the time post-treatment until endpoint study.
Therapeutic groups of study and sample size. After 3 days of ligation, mice were randomly assigned into 4 groups: Sham, free SA-10, SA-10 NPs and blank PLGA NPs. Sham groups were injected with saline without any therapeutic treatment. Based on study of biodistribution, the route of administration was intramuscular (IM) injection. To determine sample size, a power of analysis was processed on SigmaPlot v.13 software. Significant difference would be considered when P<0.05. Based on the inventor's own experience and literature reports, the inventor selected power with α<0.05 as 0.8. Calculation yielded sample size as n=5.
In vivo blood perfusion and physical test. Animals under treatments were measured for their recovery physiologically and physically. In the former study, animals were anesthetized with 1.5-2% isoflurane, and blood perfusion was measured with Laser Speckle Contrast Imaging (PeriCam PSI NR, Perimed AB). Briefly, hemoglobin in shallow vessels and capillaries responded to exciting lasers in term of color pigments. The relative blood perfusion was calculated by device software (PIMSoft), and it correlated to typical pigments. […]
When the animal was not running for total of 30 seconds under stimulation, the run of animals was terminated from recording. Physical recovery of animals was then quantified as covered distance until exhaustion, which was obtained from the treadmill software.

HUVEC [3] = experiment: HUVEC viability / cytoprotection under H2O2 induced oxidative stress (MTT); assay type: cell-based, Human; settings: for effective range of concentration to protect ECs: ECs under H2O2 stress; for cytoprotective activity: different concentrations
[4] = tested on: primary microglia isolated from rat retina; experiment: TII induced ROS in primary microglia (DCFDA assay); settings: for TII induced ROS production: 10 μM, 24 h, TII = TNF-α, IL-1β, IFN-γ; for activation of microglia by the compound itself: rat primary microglia, without TII
ROS in HUVEC cells = experiment: ROS scavenging in HUVEC under oxidative stress (DCFDA assay); assay type: cell-based, Human; settings: H2O2 induced oxidative stress, SA-9 at 0.05 μM
[5] = tested on: primary microglia isolated from rat retina; experiment: TII induced nitric oxide in primary microglia (Greiss assay); assay type: cell-based; settings: 10 μM, 24 h
[6] = tested on: Nitric oxide synthetase (NOS); experiment: NOS activating activity in HUVEC under H2O2 stress; assay type: cell-based, Human; settings: for eNOS activity: HUVEC under H2O2 induced oxidative stress; for level of NOS: HUVEC treated with H2O2, both doses 0.05 μM and 0.5 μM
Procedure: In vitro Nitric oxide synthetase (NOS) activating activity. Human Umbilical Vascular Endothelial Cells (HUVECs) were plated at a density of 2×10^5 cells per well and were treated with or without H2O2 (200 μM) and compounds at different concentrations. NOS knock-down samples (NOSi) were cells exposed to a competitive NOS inhibitor L-NNA at 50 μM. After 24-hour-treatment, total NOS activity from treated cells was quantified using OxiSelect™ Intracellular Nitric Oxide (NO) Assay Kit where NOS activity correlates to fluorescent intensity^5.

[7] = tested on: primary microglia isolated from rat retina; experiment: TII induced cell death in primary microglia (LDH assay); assay type: cell-based; settings: 10 μM, 24 h
I/R mice retina = experiment: retinal ischemia/reperfusion injury model in mouse eyes; assay type: in vivo
Procedure: The function of retinal ganglion cells (RGCs) can be non-invasively assessed by pattern electroretinogram (PERG) a technique that emphasizes the activity of inner retina neurons. The amplitude of PERG reflects the degree of apparent damage by RGCs. A murine model of ocular stroke was employed to evaluate the function of […] upon administration of SA-10. After a single intravitreal injection of 100 μM of SA-10 to the left eye of mice (C57BL/6J, 12 weeks old, female) having undergone ischemia reperfusion (I/R) procedure, standard PERG was analyzed 1 week post I/R to determine whether compound SA-10 could prevent PERG deficits (FIGS. 9A & 9B). […] However, there was a significant decrease in PBS treated mice compared to PERG amplitudes from sham mice (14.8±1.4 μV, n=5). As expected, compound SA-10 injection increased PERG amplitude compared to PBS-treated I/R mice (21±1.4 μV, n=5, p<0.05 vs. I/R+PBS treated mice; values signify mean±SEM).
Ischemic/reperfusion injury model in mouse eyes. Mice (C57Bl6/J, 12 weeks, n=5) were anesthetized and the ischemic/reperfusion (I/R) injury was performed on left eye after it was numbed with proparacaine followed by intravitreal injection of 2 μl of […] of compound SA-10 formulated in PBS (I/R+SA-10 group) or only 2 μl PBS to left eye (I/R+PBS group) at days 0. At day 7, pattern ERG was performed with the JORVEC System. SD-OCT was done to measure the change in overall thickness of retina layers and flash ERG was done to measure the function of bipolar cells (b-wave) as well as photoreceptor cells (a-wave) after 28 days. Pattern ERG was performed to measure the function of RGCs. Right eye was served as contralateral control.

[8] = tested on: human trabecular meshwork cells; experiment: cytoprotection of human trabecular meshwork cells under TBHP induced oxidative stress; assay type: cell-based; settings: for cytoprotective activity: TBHP (300 μM) induced oxidative stress; for concentration providing cytoprotection: oxidative stress induced cell death model
endothelial cells = experiment: transwell chemotaxis EC migration under oxidative stress; assay type: cell-based, Human; settings: for EC migration (FIG. 6): 0.5 μM, transwell
Procedure: Cell migration studies. Transwell chemotaxis migration studies were conducted to study effects of SA-2 and SA-10 drugs on the migration of endothelial cells under stress conditions. To this, ECs were seeded at 50,000 cells/cm^2 on upper compartment (low serum media with 200 μM H2O2) and attracted to migrate through 8 μm-pore membrane by chemotaxis (SA compounds dissolved in low serum media with 200 μM H2O2) added in lower compartment. At 12 hours, migrated cells were fixed with 4% paraformaldehyde and stained with crystal violet prior to imaging and counting by Cell counter on ImageJ.

HUVEC [9] = experiment: in vitro angiogenesis / tube formation under oxidative stress; assay type: cell-based, Human; settings: for angiogenesis and new tube formation: HUVEC under oxidative stress (200 μM H2O2); for angiogenesis and new tube formation (FIG. 5): SA-9 0.5 μM, SA-10 0.005 μM, H2O2 200 μM, low serum media
Procedure: In vitro angiogenesis studies. Cultrex reduced growth factor basement membrane extracted gel (Cat. 3433-005-01, R&D Systems, Inc.) was coated on bottom of μ-Slide angiogenesis wells (Cat. 81506, iBidi GmbH Co.). ECs at early passages (passage 6th or earlier) were then seeded on gel at a seeding density of 25,000 cells/cm^2. Next, cells were treated with treatment groups (SA-2, SA-10, SA-10 NPs, VEGF) under stress condition (200 μM H2O2). After 12 hours of incubation, formation of new microtubes were visualized and captured on phase contrast microscopes. Images were then stacked and processed with Angiogenesis analyzer on ImageJ.

[10] = tested on: mouse hippocampal neural cells (HT-22); experiment: cytotoxicity / proliferation in mouse hippocampal neural cells (HT-22); settings: for cell proliferation: different doses
[11] = HUVEC, H2O2 induced oxidative stress

SMILES	AUCt=0 to t=3h [1]	DEX induced PAI-1 [2]	effective range of concentration to protect ECs (HUVEC [3])	cytoprotective activity (HUVEC [3]; [11])	TII induced ROS production [4]	activation of microglia by the compound itself [4]	ROS scavenging activity in DCFDA assay (ROS in HUVEC cells)	TII induced nitric oxide (nitrite) production [5]	eNOS activity [6]	TII induced cell death (LDH release) [7]	cytoprotective activity [8]	EC migration (endothelial cells)	EC migration (FIG. 6) (endothelial cells)	angiogenesis and new tube formation (HUVEC [9])	angiogenesis and new tube formation (FIG. 5) (HUVEC [9])	level of NOS [6]	cell proliferation [10]	concentration providing cytoprotection [8]	other results
O=c1cc(-c2ccccc2)oc2cc(O)c(O)c(O)c12 [Baicalein, baicalein]	1944	–	–	–	–	–	–	–	–	–	–	–	–	–	–	–	–	–	–
Nc1c[n+](C2CCS(=O)(=O)CC2)no1 [SA-10]	–	showed inhibition; also recorded: decreased DEX induced increase in PAI-I level	up to 100 μM	potent cytoprotective activity	decrease	did not activate	didn't show any significant ROS scavenging activity	decrease	induced eNOS signals	decrease the cell death	cytoprotective activity	induce EC migration; also recorded: performed comparably to SA-2	induce EC migration	induce angiogenesis and new tube formation; also recorded: significantly induced tube formation	induce angiogenesis and new tube formation	–	–	–	blood perfusion indexes (ischemic hindlimb mice; 0.125 mg/kg drug, IM, ischemic versus normal limb): performed better than sham and blank vehicle at the beginning; endurance run (ischemic hindlimb mice; 0.125 mg/kg drug, IM, treadmill distance until exhaustion): performed better than sham and blank vehicle at the beginning; recovery in treadmill experiment (ischemic hindlimb mice; IM injection, day 0 and day 7, vs. sham and VEGF): good recovery effects; new blood vessel formation and blood circulation (ischemic hindlimb mice; mouse leg after artery occlusion, assessed by treadmill): increase new blood vessel formation and blood circulation; EC protection, longer protection study (HUVEC [3]; 2-day stress with 400 μM H2O2): protected over the course of 2-day stress; PERG amplitude (I/R mice retina; 1 week post I/R, single intravitreal injection 100 μM, mean±SEM, n=5): 21±1.4 μV; retinal layer thickness by SD-OCT (I/R mice retina; after I/R): maintenance of retinal layer thickness; ERG amplitude (a- and b-wave) damage after I/R (I/R mice retina; flash ERG 28 days post-I/R): significantly reversed these damages; protein nitrosylation in retina (I/R mice retina; intravitreal dosing of 2%): doesn't cause any significant protein nitrosylation; retina protection against ischemic stroke and reperfusion (I/R mice retina; single intravitreal injection): protective to retina
Nc1c[n+](C2CCSCC2)no1 [SA-9]	3402	–	–	potent cytoprotective activity	decrease	did not activate	scavenged ROS	decrease	increase in eNOS activity	decrease the cell death	superior cytoprotective activity	induce EC migration	induce EC migration	induce angiogenesis and new tube formation	induce angiogenesis and new tube formation	increased the level of NOS significantly	dose dependent increase in cell proliferation	8 µM	cytotoxicity ([10]; different concentrations): not toxic to neural cells
[NH-]c1c[n+](N2CCOCC2)no1 [SIN-1, reference compound]	1856	–	–	–	did not	–	–	–	–	–	–	–	–	–	–	–	–	–	–
CC1(C)CC([n+]2cc(N)on2)CC(C)(C)N1O [SA-2, reference compound]	3338	didn't show such activity	up to 1 μM	–	–	–	–	–	induced eNOS signals	–	–	–	–	–	–	increased the level of NOS significantly	didn't show such trend	16 µM	doses showing cytoprotective activity (HUVEC [3]; [11]): decreased as the dose increased

From patent US12234228B2, “Nitric oxide donor and anti-oxidant compounds” (University of North Texas Health Science Center, priority 2018, dated 2025)
